The results in this text go back to the supplement of paper PMC10307832.

Common to all, as to assay: relative viability (nuclei count vs DMSO), 5 days (fraction); higher = more cells survive
Compound in the assay “Pictilisib + Linsitinib”: CS(=O)(=O)N1CCN(Cc2cc3nc(-c4cccc5[nH]ncc45)nc(N4CCOCC4)c3s2)CC1 [Pictilisib] + C[C@]1(O)C[C@@H](c2nc(-c3ccc4ccc(-c5ccccc5)nc4c3)c3c(N)nccn32)C1 [Linsitinib] (partner 1 µM)
The method, boiled down: (§1)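 Dosing by pin tool came one day after lung cancer cell lines were seeded in 1536-well plates, using either one drug or a fixed anchor-drug dose plus five library-drug doses (not always all listed) in √10 steps. After 5 days, nuclei were counted on 4× images. Relative viability is treated-well nuclei count divided by vehicle-well nuclei count, and values are medians of duplicate plates.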

Compound in the assay “Pictilisib + Foretinib”: CS(=O)(=O)N1CCN(Cc2cc3nc(-c4cccc5[nH]ncc45)nc(N4CCOCC4)c3s2)CC1 [Pictilisib] + COc1cc2c(Oc3ccc(NC(=O)C4(C(=O)Nc5ccc(F)cc5)CC4)cc3F)ccnc2cc1OCCCN1CCOCC1 [Foretinib] (partner 0.25 µM)
In short, it runs like this: as §1

Compound in the assay “MK-2206 + Decitabine”: NC1(c2ccc(-c3nc4ccn5c(=O)[nH]nc5c4cc3-c3ccccc3)cc2)CCC1 [MK-2206] + Nc1ncn([C@H]2C[C@H](O)[C@@H](CO)O2)c(=O)n1 [Decitabine] (partner 2 µM)
In short, it runs like this:
as §1

Compound in the assay “MK-2206 + Phenformin”: NC1(c2ccc(-c3nc4ccn5c(=O)[nH]nc5c4cc3-c3ccccc3)cc2)CCC1 [MK-2206] + N=C(N)NC(=N)NCCc1ccccc1 [Phenformin] (partner 250 µM)
In short, it runs like this:
as §1

Compound in the assay “Pictilisib + Palbociclib”: CS(=O)(=O)N1CCN(Cc2cc3nc(-c4cccc5[nH]ncc45)nc(N4CCOCC4)c3s2)CC1 [Pictilisib] + CC(=O)c1c(C)c2cnc(Nc3ccc(N4CCNCC4)cn3)nc2n(C2CCCC2)c1=O [Palbociclib] (partner 0.5 µM)
In short, it runs like this: as §1

Turning to UMC-11, the relative viability with Pictilisib + Linsitinib (first compound 0.02 µM) was 0.973; in the assay with Pictilisib + Linsitinib (first compound 0.06325 µM), 1.03; with Pictilisib + Linsitinib (first compound 0.6325 µM), 1.07; with Pictilisib + Linsitinib (first compound 2 µM), 0.928; with Pictilisib + Foretinib (first compound 0.02 µM), 0.983; with Pictilisib + Foretinib (first compound 0.06325 µM), 1.25. The relative viability came out at 1.13 with Pictilisib + Foretinib (first compound 0.6325 µM); 0.979 with Pictilisib + Foretinib (first compound 2 µM); 0.669 with MK-2206 + Decitabine (first compound 0.01 µM); 0.643 with MK-2206 + Decitabine (first compound 0.03162 µM); 0.569 in the assay with MK-2206 + Decitabine (first compound 0.3162 µM); 0.716 with MK-2206 + Decitabine (first compound 1 µM). For the same cell line, the relative viability in the assay with MK-2206 + Phenformin (first compound 0.01 µM) was 0.351; in the assay with MK-2206 + Phenformin (first compound 0.03162 µM), 0.312; in the assay with MK-2206 + Phenformin (first compound 0.3162 µM), 0.33; with MK-2206 + Phenformin (first compound 1 µM) it was 0.316; with Pictilisib + Palbociclib (first compound 0.02 µM), 0.334; in the assay with Pictilisib + Palbociclib (first compound 0.06325 µM), 0.318. Further, the relative viability with Pictilisib + Palbociclib (first compound 0.6325 µM) amounted to 0.427; with Pictilisib + Palbociclib (first compound 2 µM) it was 0.376.
